In patent publication US11771086B2, “Pest control composition including novel iminopyridine derivative” (priority 2012, dated 2023):

Key:
[1] = tested on: Laodelphax striatella; test: whole plant or invertebrate; assay type: in vivo
Method: After an air drying process, second instar larvae were released thereto. […] The test was performed in duplicate.
(§1) Method for Judging Synergistic Effects

[2] = tested on: Nilaparvata lugens resistant population II; test: Reference Test Example 19 Pest control test of Nilaparvata lugens, resistant population II (soil drench); assay type: in vivo; details: for Insecticidal effects against Nilaparvata lugens (death rate %), Resistant population II: soil drench, six days
Method: (§2) Three days after the treatment, ten second instar larvae of Nilaparvata lugens, which had been collected outdoors and proliferated indoors, were each released to the rice seedling. […] Test in duplicate.
(§3) Furthermore, for comparison, the test against a species of Nilaparvata lugens which is highly susceptible to imidacloprid was performed by the same method as described above, and the results thereof are shown in Table 45. […] Meanwhile, the death rates of imidacloprid at 0.05 mg/seedling were (susceptible species) 100%, (resistant population I) 38% and (resistant population II) 69%, and the insecticidal effect thereof was also low even at a high dose. From the above results, it became obvious that Compound P212 and Compound 1-20 have high insecticidal effects even against Nilaparvata lugens resistance against imidacloprid.
(§4) Further, for the origin of test pests, bugs collected outdoors from the Kumamoto prefecture (I) in 2007 and from the Fukuoka prefecture (II) in 2005 as resistant population of Nilaparvata lugens, and bugs collected from the Kagoshima prefecture and then successively reared indoors for a long time as the imidacloprid susceptible population of Nilaparvata lugens were used.

[3] = tested on: Aphis gossypii; test: Reference Test Example 3 Pest control test of Aphis gossypii (foliar treatment, single agent); assay type: in vivo
Method: After an air drying process, first instar larvae were released thereto. Thereafter, the larvae were left to stand in a thermostatic chamber (16 hours of light period-8 hours of dark period) at 25° C. […] Test in duplicate. Mortality (%)={number of dead larvae/(number of survived larvae+number of dead larvae)}×100

[4] = tested on: Nilaparvata lugens resistant population I; test: Reference Test Example 19 Pest control test of Nilaparvata lugens, resistant population I (soil drench); assay type: in vivo; details: for Insecticidal effects against Nilaparvata lugens (death rate %), Resistant population I: soil drench, six days
Method: as §2, §3, §4

[5] = tested on: Spodoptera litura; test: Reference Test Example 2 Pest control test of Spodoptera litura (foliar treatment, single agent); assay type: in vivo; details: 72 h
Excerpt: After an air drying process, third instar larvae were released thereto. […] Test in duplicate.

[6] = tested on: Sogatella furcifera; test: Reference Test Example 6 Pest control test of Sogatella furcifera (foliar treatment, single agent); assay type: in vivo; details: 96 h
Excerpt: (§5) After an air drying process, second instar larvae were released thereto. […] Test in duplicate.

[7] = tested on: Plutella xylostella; test: Reference Test Example 1 Pest control test of Plutella xylostella (foliar treatment, single agent); assay type: in vivo
Excerpt: as §5

[8] = tested on: Laodelphax striatella; test: whole plant or invertebrate; details: Laodelphax striatellus, soil, 72 h, soil irrigation
Method: After the rice seedling was left to stand for 3 days, second instar larvae were released thereto. Thereafter, the larvae were left to stand in a thermostatic chamber (16 hours of light period-8 hours of dark period) at 25° C. […] The test was performed in duplicate. Mortality of larvae (%)={number of dead larvae/(number of survived larvae+number of dead larvae)}×100
B: 100−(mortality of larvae or adults when treated only with each of imidacloprid, fipronil, chlorantraniliprole, spinosad, clothianidin, dinotefuran, sulfoxaflor, pymetrozine, thiamethoxam, flupyradifurone and cycloxaprid))
as §1
When the mortality against Laodelphax striatella in the case of a mixture with another agent exceeded the theoretical value by the Colby's equation, a synergistic effect was judged to be present.

[9] = tested on: Nilaparvata lugens; test: Reference Test Example 5 Pest control test of Nilaparvata lugens (foliar treatment, single agent); assay type: in vivo; details: 144 h
Excerpt: as §5

[10] = tested on: Nilaparvata lugens susceptible species (highly susceptible to imidacloprid); test: Reference Test Example 19 Pest control test of Nilaparvata lugens, imidacloprid susceptible species (soil drench); assay type: in vivo; details: for Insecticidal effects against Nilaparvata lugens (death rate %), Susceptible population: soil drench, six days
Method: as §2, §3, §4

[11] = tested on: Laodelphax striatella; test: Reference Test Example 4 Pest control test of Laodelphax striatella (foliar treatment, single agent); assay type: in vivo; details: Laodelphax striatellus, 72 h
Excerpt: as §5

[12] = tested on: Frankliniella occidentalis; test: Reference Test Example 9 Pest control test of Frankliniella occidentalis (foliar treatment, single agent); assay type: in vivo; details: 72 h
Method: After an air drying process, first instar larvae were released to the leaf disk. Thereafter, the larvae were left to stand in a thermostatic chamber (16 hours of light period-8 hours of dark period) at 25° C. […] Test in duplicate. Mortality of larvae (%)={number of dead larvae/(number of survived larvae+number of dead larvae)}×100

[13] = tested on: Trigonotylus caelestialium; test: Reference Test Example 10 Pest control test of Trigonotylus caelestialium (dipping treatment); assay type: in vivo; details: 72 h
Method: After an air drying process, the wheat seedling leaves and stems were placed into a glass tube, and two second instar larvae of Trigonotylus coelestialium were released to the same glass tube. After the larvae were released, the tube was lidded to leave the larvae to stand in a thermostatic chamber at 25° C. In order to supply water to the wheat during the test, water was given to the wheat from the bottom of the glass tube. […] Test in triplicate.

[14] = tested on: Aphis gossypii; test: whole plant or invertebrate; assay type: in vivo; details: Aphis gossypii
Method: The test was performed in duplicate.
as §1

[15] = tested on: Laodelphax striatella; test: Reference Test Example 18 Pest control test of Laodelphax striatella (wheat seedling root treatment); assay type: in vivo; details: wheat seedling roots treated; four days after release; 20 μg/seedling
Method: The drug was absorbed from the roots for 72 hours, and then ten second instar larvae of Laodelphax striatella were each released thereto. […] The test was performed in duplicate.

[16] = assay type: in vivo; details: single agent 0.125 mg/seedling; soil irrigation; seven days after inoculation

## FC(F)(F)C(=S)/N=c1\ccccn1Cc1ccc(Cl)nc1 [Compound 1-20, N-[1-((6-chloropyridin-3-yl)methyl)pyridin-2(1H)-ylidene]-2,2,2-trifluoroethanethioamide]
[1]; Laodelphax striatella foliar, single agent 0.625 ppm (other component 0)
  Theoretical value by Colby's equation: 90%
[1]; Laodelphax striatellus, foliar, 72 h, read-out: Mortality of single agent against Laodelphax striatella
  mortality at 0.625 ppm: 90%
[2]; resistant population II, 0.005 mg/seedling, six days after the release
  death rates of larvae: 85%
[2]; throughput 0.005 mg/seedling
  Insecticidal effects against Nilaparvata lugens (death rate %), Resistant population II: 85%
[2]; throughput 0.01 mg/seedling
  Insecticidal effects against Nilaparvata lugens (death rate %), Resistant population II: 100%
[3]; Aphis gossypii, foliar, 72 h
  mortality at 100 ppm: ≥ 80%
[3]; foliar treatment, single agent
  Aphis gossypii (Reference Test Example 3), mortality of larvae: 100%
[4]; resistant population I, 0.005 mg/seedling, six days after the release
  death rates of larvae: 77%
[4]; throughput 0.005 mg/seedling
  Insecticidal effects against Nilaparvata lugens (death rate %), Resistant population I: 77%
[4]; throughput 0.01 mg/seedling
  Insecticidal effects against Nilaparvata lugens (death rate %), Resistant population I: 100%
[5]
  mortality at 500 ppm: ≥ 80%
[6]
  mortality at 100 ppm: ≥ 80%
[7]; Plutella xylostella, foliar, 72 h
  mortality at 100 ppm: ≥ 80%
[7]; foliar treatment, single agent
  Plutella xylostella (Reference Test Example 1), mortality of larvae: 100%
[8]; read-out: Mortality of single agent against Laodelphax striatella, single agent 0.005 mg/Seedling
  mortality at 0.005 mg/seedling: 12%
[9]
  mortality at 100 ppm: ≥ 80%
[10]; susceptible species, 0.005 mg/seedling, six days after the release
  death rates of larvae: 100%
[10]; throughput 0.005 mg/seedling
  Insecticidal effects against Nilaparvata lugens (death rate %), Susceptible population: 100%
[10]; throughput 0.01 mg/seedling
  Insecticidal effects against Nilaparvata lugens (death rate %), Susceptible population: 95%
[11]
  mortality at 100 ppm: ≥ 80%
[12]
  mortality at 500 ppm: ≥ 80%
[13]
  mortality at 50 ppm: ≥ 80%
[14]; foliar, 72 h, read-out: Mortality of single agent against Aphis gossypii
  mortality at 0.625 ppm: 19%
[14]; single agent 0.625 ppm (other component 0)
  Theoretical value by Colby's equation: 19%
[15]
  Laodelphax striatella (Reference Test Example 18), mortality of larvae: 100%

## C=CCOC1=NS(=O)(=O)c2ccccc21 [Probenazole]
[8]; read-out: Mortality of single agent against Laodelphax striatella, single agent 0.5 mg/Seedling
  mortality at 0.5 mg/seedling: 9%
[16]
  Preventive value (rice blast, number of lesions): 96.7
